Results as given in PubChem BioAssay AID1259407 (Chemical Carcinogenesis Research Information System (CCRIS), 2018).
Calls of active or inactive are those of the source. How the calls were made is not given here.

Tested on: CCRIS mutagenicity, Ames/micronucleus/aberration tests
Assay: CCRIS mutagenicity studies

CC(Br)C(=O)O (centres undefined)
mutagenic call (End Point: IN VITRO CHROMOSOMAL ABERRATIONS, Test System: CHL CELLS, Metabolic Activation: RAT, LIVER, S-9, SODIUM PHENOBARBITAL AND 5,6-BENZOFLAVONE): active; positive (structural changes) | mutagenic call (Test System: AMES SALMONELLA TYPHIMURIUM, Strain/Indicator: TA98, Metabolic Activation: NONE, Method: PREINCUBATION): inactive; negative | mutagenic call (Test System: AMES SALMONELLA TYPHIMURIUM, Strain/Indicator: TA98, Metabolic Activation: RAT LIVER S-9, PHENOBARBITAL AND BETA-NAPHTHOFLAVONE, Method: PREINCUBATION): inactive; negative | mutagenic call (Test System: AMES SALMONELLA TYPHIMURIUM, Strain/Indicator: TA100, Metabolic Activation: NONE, Method: PREINCUBATION): inactive; negative | mutagenic call (Test System: AMES SALMONELLA TYPHIMURIUM, Strain/Indicator: TA100, Metabolic Activation: RAT LIVER S-9, PHENOBARBITAL AND BETA-NAPHTHOFLAVONE, Method: PREINCUBATION): inactive; negative | mutagenic call (Test System: AMES SALMONELLA TYPHIMURIUM, Strain/Indicator: TA1535, Metabolic Activation: NONE, Method: PREINCUBATION): inactive; negative | mutagenic call (Test System: AMES SALMONELLA TYPHIMURIUM, Strain/Indicator: TA1535, Metabolic Activation: RAT LIVER S-9, PHENOBARBITAL AND BETA-NAPHTHOFLAVONE, Method: PREINCUBATION): active; positive | mutagenic call (Test System: AMES SALMONELLA TYPHIMURIUM, Strain/Indicator: TA1537, Metabolic Activation: NONE, Method: PREINCUBATION): inactive; negative | mutagenic call (Test System: AMES SALMONELLA TYPHIMURIUM, Strain/Indicator: TA1537, Metabolic Activation: RAT LIVER S-9, PHENOBARBITAL AND BETA-NAPHTHOFLAVONE, Method: PREINCUBATION): inactive; negative | mutagenic call (Test System: AMES SALMONELLA TYPHIMURIUM, Strain/Indicator: TA1538, Metabolic Activation: NONE, Method: PREINCUBATION): inactive; negative | mutagenic call (Test System: AMES SALMONELLA TYPHIMURIUM, Strain/Indicator: TA1538, Metabolic Activation: RAT LIVER S-9, PHENOBARBITAL AND BETA-NAPHTHOFLAVONE, Method: PREINCUBATION): inactive; negative | mutagenic call (Test System: E.COLI, Strain/Indicator: WP2UVRA, Metabolic Activation: NONE, Method: PREINCUBATION): inactive; negative | mutagenic call (Test System: E.COLI, Strain/Indicator: WP2UVRA, Metabolic Activation: RAT LIVER S-9, PHENOBARBITAL AND BETA-NAPHTHOFLAVONE, Method: PREINCUBATION): inactive; negative

Cc1c2ccccc2c(CO)c2c1ccc1ccccc12
mutagenic call (Test System: CHINESE HAMSTER V-79, Strain/Indicator: V-79/6-THIOGUANINE, Metabolic Activation: CELL-MEDIATED, Method: STANDARD PLATE): active; positive | mutagenic call (Test System: CHINESE HAMSTER V-79, Strain/Indicator: V-79/OUABAIN, Metabolic Activation: CELL-MEDIATED, Method: STANDARD PLATE): active; positive

CCC(CCOCn1cc[n+](C)c1/C=N/O)[N+](=O)[O-] (centres undefined)
mutagenic call (Test System: AMES SALMONELLA TYPHIMURIUM, Strain/Indicator: TA97, Metabolic Activation: NONE, Method: STANDARD PLATE): inactive; negative | mutagenic call (Test System: AMES SALMONELLA TYPHIMURIUM, Strain/Indicator: TA97, Metabolic Activation: S-9, Method: STANDARD PLATE): inactive; negative | mutagenic call (Test System: AMES SALMONELLA TYPHIMURIUM, Strain/Indicator: TA98, Metabolic Activation: NONE, Method: STANDARD PLATE): inactive; negative | mutagenic call (Test System: AMES SALMONELLA TYPHIMURIUM, Strain/Indicator: TA98, Metabolic Activation: S-9, Method: STANDARD PLATE): inactive; negative | mutagenic call (Test System: AMES SALMONELLA TYPHIMURIUM, Strain/Indicator: TA100, Metabolic Activation: NONE, Method: STANDARD PLATE): inactive; negative | mutagenic call (Test System: AMES SALMONELLA TYPHIMURIUM, Strain/Indicator: TA100, Metabolic Activation: S-9, Method: STANDARD PLATE): inactive; negative | mutagenic call (Test System: AMES SALMONELLA TYPHIMURIUM, Strain/Indicator: TA104, Metabolic Activation: NONE, Method: STANDARD PLATE): inactive; negative | mutagenic call (Test System: AMES SALMONELLA TYPHIMURIUM, Strain/Indicator: TA104, Metabolic Activation: S-9, Method: STANDARD PLATE): inactive; negative | mutagenic call (Test System: AMES SALMONELLA TYPHIMURIUM, Strain/Indicator: TA1535, Metabolic Activation: NONE, Method: STANDARD PLATE): inactive; negative | mutagenic call (Test System: AMES SALMONELLA TYPHIMURIUM, Strain/Indicator: TA1535, Metabolic Activation: S-9, Method: STANDARD PLATE): inactive; negative | mutagenic call (Test System: AMES SALMONELLA TYPHIMURIUM, Strain/Indicator: TA1537, Metabolic Activation: NONE, Method: STANDARD PLATE): inactive; negative | mutagenic call (Test System: AMES SALMONELLA TYPHIMURIUM, Strain/Indicator: TA1537, Metabolic Activation: S-9, Method: STANDARD PLATE): inactive; negative | mutagenic call (Test System: AMES SALMONELLA TYPHIMURIUM, Strain/Indicator: TA1538, Metabolic Activation: NONE, Method: STANDARD PLATE): inactive; negative | mutagenic call (Test System: AMES SALMONELLA TYPHIMURIUM, Strain/Indicator: TA1538, Metabolic Activation: S-9, Method: STANDARD PLATE): inactive; negative
